Patent publication US8017557B2, “Benzodioxole derivatives as modulators of proteolytic activity in plants” (Endura S.p.A., priority 2002, dated 2011)
Read-outs that look alike come from different tables or passages of the source.

What was measured:
[1] = test system: endopeptidase activity in cotton sprouts; conditions: for absorbance reading, Mean, Cotton Sprouts Treated with PBO / absorbance reading, replicate 1, Cotton Sprouts Treated with PBO / absorbance reading, replicate 2, Cotton Sprouts Treated with PBO / absorbance reading, replicate 3, Cotton Sprouts Treated with PBO / Endopeptidase Activity (U × 10^3), Cotton Sprouts Treated with PBO: pH 7.7; for absorbance reading, Mean, Cotton Sprouts Treated with PBO / absorbance reading, replicate 1, Cotton Sprouts Treated with PBO / absorbance reading, replicate 2, Cotton Sprouts Treated with PBO / absorbance reading, replicate 3, Cotton Sprouts Treated with PBO / % difference of endopeptidase activity, treated vs untreated / Endopeptidase Activity (U × 10^3), Cotton Sprouts Treated with PBO: 4 days of germination, PBO 1% w/v; for Δ U (endopeptidase activity, untreated vs PBO treated): same scale as Activity (U × 10^3)
Procedure: The extent of hydrolytic activity in cotton sprouts was measured at 15′, 30′, 60′, 90′ and 120′ after solubilization of the acetonic powder in aqueous buffer at pH 7.7 by determining the absorbance at 280 nm in a quartz cuvette after protein precipitation with TCA and removal by centrifugation. Each series of analysis was performed in […]. The comparison between the values of […] activity in treated (dark grey) and untreated (light grey) samples was done using the average value of each series of analysis. Abscissa: time (min); ordinate: Abs 280 nm.
The basic idea was to “freeze” the physiologic protein hydrolysis enzymatic activity and to re-establish the process simply solubilizing the proteolytic enzymatic system in suitable buffers, which were 0.1 M phosphate pH 6.5 and 0.1 M tris-HCl pH 7.7, for evaluating both the carboxypeptidase and the endopeptidase activities according to the method described by Hile et al. 1972; Funkhouser et al. 1980.
Cotton seeds (cv. Carmela) were obtained from “Semillas Battle”, Barcelona (E).
The seeds were previously rinsed in tap water and then imbibed with aeration in distilled water over night (Funkhouser, E. A. et al., Z. Pflanzenphysiol., 1980, 100, 319-324).
The plastic boxes containing seeds were covered by a plastic film and placed in a germinator in the dark for 4 days at 30° C. as described in Hile, J. N. and Dure, L. S. J. Biol. Chem., 1972, 247: 5034-5040.
The cotton sprouts of 4 days were collected and frozen in liquid nitrogen and freeze dried (Hile et al. 1972). After this process, the material was crushed in a pestle and freed from fibrous material and settled up to obtain a pretty homogeneous meal of about 0.5 mesh.
The meals were defatted using n-hexane (1:10 w/v) at room temperature and then treated with acetone at −20° C. to remove pigments and polyphenolic compounds, in this case mainly gossypol. The powders obtained were stored in a dry box at room temperature.
The acetonic powder (30 mg) was suspended in buffer (4 ml) and incubated at 37° C. for 15′, 30, 60, 90, 120 minutes. The proteolysis was stopped adding 1 ml of 12% trichloroacetic acid. In this case the buffer used was 0.1 M phosphate pH 7.7 (Funkhouser et al. 1980). The control was a suspension of the same sample prepared in the same way but was immediately deactivated, adding up 1 ml of trichloroacetic acid. The trials with treated and untreated samples were carried out at the same time.
Proteins were precipitated with trichloroacetic acid and then removed by filtration, before with Whatman paper n. 4 and then by micro-filtration (Orange Scientific Braine I'Alleud, Belgium (Ø0.2 μm)). Finally, the hydrolyzed protein samples were analyzed as clear solutions by determining the absorbance at 280 nm in a quartz cuvette.
Each series of analysis was performed threefold. The comparison between the values of endopeptidase activity of treated and untreated samples was done using the average value of each series of analysis.

[2] = test system: Bt toxin (Cry1Ac)
Procedure: An immunoenzymatic assay was used to determine the Bt levels at different stages of plant development. • a) Measured Bt toxin values; ordinate: Bt expressed as ppm; abscissa: days of plant culture and where different, plant tissue.
The assay was carried out on samples collected at different plant development stages, which were: 4, 35, 60, 85 days after sowing.
The ELISA Cry1Ab/Cry1Ac Plate Kit was obtained from Envirologix (Portland, Maine—USA). The assay was performed according to the Envirologix protocol with the following modifications: • 1. The cotton freeze-dried powder got from leaf or cotyledon tissues was used instead of the fresh and whole leaf tissue. • 2. The Bt toxin extraction from the cotton freeze-dried powder was done with a sample/buffer ratio of 1:25 (w/v). • 3. The extraction was made leaving the sample in the buffer for at least 4 hours at room temperature, instead of using the Envirologix Disposable Tissue Extractor. The extract was then clarified by centrifugation at 5,000×g for 5 min at room temperature.
Cotton seeds of the cv. Sicala V2i were previously rinsed in distilled water and then placed in equal number in suitable plastic boxes containing settled and sterile sand. Seeds were watered with equal volumes of distilled water and the culture boxes were then covered with a plastic film to avoid evaporation during germination, which was carried out in the dark for 4 days at 30° C. […] After 4 days, these sprouts were collected for testing, whereas the other sprouts were moved in suitable pots and located in the greenhouse at 24° C. during the day and 20° C. in the night.
Treatments were given out vaporizing the diluted formulation on the plants taking care to treat both leaves sides.
Two days after each treatment, a sample of the treated plants, and the correspondent controls, were collected and all leaves were frozen in liquid nitrogen and freeze dried. After this process, the material was powdered in a pestle and then stored in a dry box at room temperature.

[3] = Time 0 (immediately deactivated)
[4] = Growth stage 4 days (plantlets)
[5] = Growth stage 35 days (cotyledons)

CCCCOCCOCCOCc1cc2c(cc1CCC)OCO2 [PBO, 5-[[2-(2-Butoxyethoxy)ethoxy]methyl]-6-propyl-1,3-benzodioxole]
endopeptidase activity in PBO treated cotton sprouts ([1]; FIG. 5, treated vs untreated cotton sprouts): lower than in the untreated ones | absorbance reading, Mean, Cotton Sprouts Treated with PBO [1, 3]: 868.00 | absorbance reading, replicate 1, Cotton Sprouts Treated with PBO [1, 3]: 821.00 | absorbance reading, replicate 2, Cotton Sprouts Treated with PBO [1, 3]: 897.00 | absorbance reading, replicate 3, Cotton Sprouts Treated with PBO [1, 3]: 886.00 | % difference of endopeptidase activity, treated vs untreated ([1]; Time 15′): 47.86% | Endopeptidase Activity (U × 10^3), Cotton Sprouts Treated with PBO ([1]; Time 15′): 50.67 U × 10^3 | absorbance reading, Mean, Cotton Sprouts Treated with PBO ([1]; Time 15′): 918.67 | absorbance reading, replicate 1, Cotton Sprouts Treated with PBO ([1]; Time 15′): 965.00 | absorbance reading, replicate 2, Cotton Sprouts Treated with PBO ([1]; Time 15′): 876.00 | absorbance reading, replicate 3, Cotton Sprouts Treated with PBO ([1]; Time 15′): 915.00 | Δ U (endopeptidase activity, untreated vs PBO treated) ([1]; Time 15′): 46.50 U | % difference of endopeptidase activity, treated vs untreated ([1]; Time 30′): 29.00% | Endopeptidase Activity (U × 10^3), Cotton Sprouts Treated with PBO ([1]; Time 30′): 82.00 U × 10^3 | absorbance reading, Mean, Cotton Sprouts Treated with PBO ([1]; Time 30′): 950.00 | absorbance reading, replicate 1, Cotton Sprouts Treated with PBO ([1]; Time 30′): 965.00 | absorbance reading, replicate 2, Cotton Sprouts Treated with PBO ([1]; Time 30′): 935.00 | absorbance reading, replicate 3, Cotton Sprouts Treated with PBO ([1]; Time 30′): 950.00 | Δ U (endopeptidase activity, untreated vs PBO treated) ([1]; Time 30′): 33.50 U | % difference of endopeptidase activity, treated vs untreated ([1]; Time 60′): 12.86% | Endopeptidase Activity (U × 10^3), Cotton Sprouts Treated with PBO ([1]; Time 60′): 148.00 U × 10^3 | absorbance reading, Mean, Cotton Sprouts Treated with PBO ([1]; Time 60′): 1016.00 | absorbance reading, replicate 1, Cotton Sprouts Treated with PBO ([1]; Time 60′): 1038.00 | absorbance reading, replicate 2, Cotton Sprouts Treated with PBO ([1]; Time 60′): 1038.00 | absorbance reading, replicate 3, Cotton Sprouts Treated with PBO ([1]; Time 60′): 972.00 | Δ U (endopeptidase activity, untreated vs PBO treated) ([1]; Time 60′): 21.83 U | % difference of endopeptidase activity, treated vs untreated ([1]; Time 90′): 28.80% | Endopeptidase Activity (U × 10^3), Cotton Sprouts Treated with PBO ([1]; Time 90′): 127.33 U × 10^3 | absorbance reading, Mean, Cotton Sprouts Treated with PBO ([1]; Time 90′): 995.33 | absorbance reading, replicate 1, Cotton Sprouts Treated with PBO ([1]; Time 90′): 1015.00 | absorbance reading, replicate 2, Cotton Sprouts Treated with PBO ([1]; Time 90′): 991.00 | absorbance reading, replicate 3, Cotton Sprouts Treated with PBO ([1]; Time 90′): 980.00 | Δ U (endopeptidase activity, untreated vs PBO treated) ([1]; Time 90′): 51.50 U | % difference of endopeptidase activity, treated vs untreated ([1]; Time 120′): 22.48% | Endopeptidase Activity (U × 10^3), Cotton Sprouts Treated with PBO ([1]; Time 120′): 129.33 U × 10^3 | absorbance reading, Mean, Cotton Sprouts Treated with PBO ([1]; Time 120′): 997.33 | absorbance reading, replicate 1, Cotton Sprouts Treated with PBO ([1]; Time 120′): 1017.00 | absorbance reading, replicate 2, Cotton Sprouts Treated with PBO ([1]; Time 120′): 960.00 | absorbance reading, replicate 3, Cotton Sprouts Treated with PBO ([1]; Time 120′): 1015.00 | Δ U (endopeptidase activity, untreated vs PBO treated) ([1]; Time 120′): 37.50 U | Bt content in PBO-treated samples vs untreated ([2]; 35, 60, 85 days after planting): significant lower Bt content | Bt content in PBO-treated samples vs untreated ([2]; 4 days): no difference | %: treated − control (Cry1Ac) [2, 4]: −4.823% | Cry1Ac ppm, cv V2i PBO treated [2, 4]: 44.60 ppm | Δ: treated − control (Cry1Ac) [2, 4]: −2.26 ppm | %: treated − control (Cry1Ac) [2, 5]: 9.149% | Cry1Ac ppm, cv V2i PBO treated [2, 5]: 66.57 ppm | Δ: treated − control (Cry1Ac) [2, 5]: 5.58 ppm | %: treated − control (Cry1Ac) ([2]; Growth stage 35 days (leaves)): 38.356% | Cry1Ac ppm, cv V2i PBO treated ([2]; Growth stage 35 days (leaves)): 45.45 ppm | Δ: treated − control (Cry1Ac) ([2]; Growth stage 35 days (leaves)): 12.6 ppm | %: treated − control (Cry1Ac) ([2]; Growth stage 60 days (leaves)): 16.629% | Cry1Ac ppm, cv V2i PBO treated ([2]; Growth stage 60 days (leaves)): 31.07 ppm | Δ: treated − control (Cry1Ac) ([2]; Growth stage 60 days (leaves)): 4.43 ppm | %: treated − control (Cry1Ac) ([2]; Growth stage 85 days (leaves)): 13.236% | Cry1Ac ppm, cv V2i PBO treated ([2]; Growth stage 85 days (leaves)): 31.91 ppm | Δ: treated − control (Cry1Ac) ([2]; Growth stage 85 days (leaves)): 3.73 ppm | amount of transgenic toxin after PBO treatment ([2]; cotton transgenic for the Bt CryI protein): higher than in transgenic untreated plants
